Source: patent US9745348B2 (The University of Manchester, priority 2011, dated 2017)
Where two headings read alike, the source gives them in different places. Where a SMILES comes first, the peptide text is derived from it. Where no end group is shown, it is not given here. [ ]: non-standard residue; d: D form. Orn = NCCC[C@H](N)C(=O)O

Experiments:
[1] = system: fibroblasts Adult (HDFa) cells; test: MTT viability of fibroblasts over three days; type: cell-based, human
Procedure: (§1) MTT assay: Cell viability and proliferation is widely assessed by the MTT assay as already described previously.
(§2) The fibroblasts cells, Neonatal (HDFn) and Adult (HDFa), were both grown until greater than 80% confluent. […] After 24 hour incubation the culture medium was replaced with fresh medium containing an appropriate amount of the peptide for investigation.
(§3) The viability of the fibroblasts, Adult (HDFa) and Neonatal (HDFn) cells in the presence of surfactants was tested by MTT assay over three days relative to control wells containing cells only.

[2] = system: E. coli, (EC) and S. aureus, (SA); test: Bacterial growth by optical density, statements for both bacteria; type: cell-based, Escherichia coli; Staphylococcus aureus; settings: 1 wt %; for antibacterial activity of surfactant alone: both SA and EC
Procedure: (§4) Bacteria E. coli, (EC) and S. aureus, (SA) were grown in LB media at 37° C. with continuous shaking for 24 hours. The bacterial concentration was then adjusted such that the absorbance at 600 (A600) was controlled to ca 0.2 unit. The bacteria suspensions with the peptides were incubated in 96-well tissue culture plates. The total medium volume in each well was […]. […] Controls with media only and media with bacteria only were run alongside the peptide bacteria mixed suspensions. Measurements were taken at time t=0, t=20 and t=72 hours using optical density cell plate reader. The optical density (OD) is representative of the relative amount of bacterial growth within the medium.
Interactions of bacteria E. coli, (EC) and S. aureus, (SA) with surfactants were also studied. The bacteria were grown in LB media at 37° C. with continuous shaking for 24 hours. The bacterial concentration was then adjusted such that the absorbance at 600 (A600) was controlled at ca 0.2 unit. The bacteria suspensions with surfactants were incubated in 96-well tissue culture plates. The total medium volume in each well was 200 μL. Again, surfactant concentrations of 1% were used. Controls with media only and media with bacteria only were run alongside the surfactant-bacteria mixed suspensions. Measurements were taken at time t=0, t=20 and t=72 hours using optical density cell plate reader again.

[3] = system: HeLa and HL60 cancer cell lines; settings: 24 h
Procedure: Antitumor activities of peptides were measured using the 3-(4,5-dimethylthiazol-2-yl)-2,-diphenyl tetrazolium bromide (MTT) assay, and the IC50 value was calculated as the concentration of peptide that induced 50% growth inhibition compared to the untreated control.
HeLa and HL60 cells were seeded in 96-well plates (10^5 cells/well) in a complete medium [Iscove's modified dulbecco's medium (IMDM)] with 10% fetal bovine serum (FBS) for 24 h before peptide treatment. […] Following incubation with peptides, 20 μL of a 5 mg/ml solution MTT reagent was added to each well and incubated for 4 h at 37° C. After removing the supernatant, 150 μL of dimethyl sulfoxide (DMSO) was added to dissolve the formazan crystals that remained in the wells. The absorbance was determined using a microplate ELISA Reader at 570 nm. Wells without cells for blanking the spectrophotometer and the cells without peptides were taken as negative controls.

[4] = MTT viability of fibroblasts over three days; type: cell-based, human; settings: human, adult fibroblasts (HDFa cells)
Procedure: as §1, §2, §3

in vitro = type: cell-based; settings: human, neonatal fibroblasts (HDFn cells)
Procedure: as §1
The fibroblasts cells, Neonatal (HDFn) and Adult (HDFa), were both grown until greater than 80% confluent. The cells were then harvested and seeded into micro well plate at cell densities of 5000 cells/well in a volume […] of medium. After 24 hour incubation the culture medium was replaced with fresh medium containing an appropriate amount of the peptide for investigation.

E. coli, (EC) = test: Bacterial growth by optical density, peptides with or without surfactants; type: cell-based, Escherichia coli
Procedure: as §4
The antibacterial activities of the designed short peptides in the presence of selected surfactants were investigated to determine if the peptides would sustain their antibacterial performance when surfactants are present. Bacteria E. coli, (EC) and S. aureus, (SA) were grown in LB media at 37° C. with continuous shaking for 24 hours. The bacterial concentrations were then adjusted such that the absorbance at 600 (A600) was controlled to ca 0.2 unit. The bacteria suspensions with the peptides were incubated in 96-well tissue culture plates. The total medium volume in each well was […]. […] Controls used were (i) media only, (ii) media with bacteria only and (iii) bacteria with media containing peptides at a particular concentration. These were run alongside the peptide+bacteria and selected surfactant mixed suspensions. Measurements were taken at time t=0, t=20 and t=72 hours using optical density cell plate reader. Surfactants were added such that the final concentration was 1% within the wells.

## sodium lauryl ether sulphate [SLES]
[1]
  MTT results (relative MTT reading): 0.00
[2]
  antibacterial activity of surfactant alone: some antibacterial influence

## CC[C@H](C)[C@H](NC(=O)[C@H](CCCN)NC(=O)[C@H](CCCN)NC(=O)[C@@H](NC(=O)[C@@H](NC(=O)[C@H](CCCN)NC(=O)[C@H](CCCN)NC(=O)[C@@H](NC(=O)[C@@H](NC(=O)[C@H](CCCN)NC(=O)[C@H](CCCN)NC(=O)[C@@H](NC(=O)[C@@H](NC(=O)CN)[C@@H](C)CC)[C@@H](C)CC)[C@@H](C)CC)[C@@H](C)CC)[C@@H](C)CC)[C@@H](C)CC)C(N)=O [GO, G(IIOO)3 I-NH2] (H-GII[Orn][Orn]II[Orn][Orn]II[Orn][Orn]I-NH2)
[3]
  IC50: 4 to 25 µM
[4]
  viability at 24 h, 5 µM: 101%
  viability at 24 h, 25 µM: 98%
  viability at 24 h, 50 µM: 95%
  viability at 24 h, 100 µM: 88%
  viability at 48 h, 5 µM: 95%
  viability at 48 h, 25 µM: 92%
  viability at 48 h, 50 µM: 83%
  viability at 48 h, 100 µM: 75%
  viability at 72 h, 5 µM: 90%
  viability at 72 h, 25 µM: 82%
  viability at 72 h, 50 µM: 78%
  viability at 72 h, 100 µM: 70%
In vitro
  viability at 24 h, 5 µM: 95%
  viability at 24 h, 25 µM: 91%
  viability at 24 h, 50 µM: 88%
  viability at 24 h, 100 µM: 83%
  viability at 48 h, 5 µM: 91%
  viability at 48 h, 25 µM: 85%
  viability at 48 h, 50 µM: 81%
  viability at 48 h, 100 µM: 75%
  viability at 72 h, 5 µM: 85%
  viability at 72 h, 25 µM: 80%
  viability at 72 h, 50 µM: 75%
  viability at 72 h, 100 µM: 65%

## cocamidopropyl aetaine [Tt]
[2]
  antibacterial activity of surfactant alone: some antibacterial influence

## cocamide ethanolamines [CMEA]
[1]
  MTT results (relative MTT reading): 0.00

## CCCCCCCCCCCCOS(=O)(=O)[O-].[Na+] [SDS, Sodium dodecyl sulphate]
[1]; HDFa, surfactant 1%, Day 1
  MTT results (relative MTT reading): 0.01
[1]; HDFa, surfactant 1%, Day 2
  MTT results (relative MTT reading): 0.01
[1]; HDFa, surfactant 1%, Day 3
  MTT results (relative MTT reading): 0.01

## CC1(C)S[C@@H]2[C@H](NC(=O)[C@H](N)c3ccccc3)C(=O)N2[C@H]1C(=O)O [Ampicillin, ampicillin]
E. coli, (EC); T = 0 HOUR, NO SURF, 25 μM
  bacterial growth (optical density): 0.20
E. coli, (EC); T = 0 HOUR, NO SURF, 50 μM
  bacterial growth (optical density): 0.20
E. coli, (EC); T = 0 HOUR, NO SURF, 100 μM
  bacterial growth (optical density): 0.19
E. coli, (EC); T = 0 HOUR, with 1% C12TAB, 25 μM
  bacterial growth (optical density): 0.27
E. coli, (EC); T = 0 HOUR, with 1% C12TAB, 50 μM
  bacterial growth (optical density): 0.26
E. coli, (EC); T = 0 HOUR, with 1% C12TAB, 100 μM
  bacterial growth (optical density): 0.27
E. coli, (EC); T = 0 HOUR, with 1% F127, 25 μM
  bacterial growth (optical density): 0.20
E. coli, (EC); T = 0 HOUR, with 1% F127, 50 μM
  bacterial growth (optical density): 0.20
E. coli, (EC); T = 0 HOUR, with 1% F127, 100 μM
  bacterial growth (optical density): 0.17
E. coli, (EC); T = 0 HOUR, with 1% Mx, 25 μM
  bacterial growth (optical density): 0.21
E. coli, (EC); T = 0 HOUR, with 1% Mx, 50 μM
  bacterial growth (optical density): 0.20
E. coli, (EC); T = 0 HOUR, with 1% Mx, 100 μM
  bacterial growth (optical density): 0.20
E. coli, (EC); T = 0 HOUR, with 1% SLES, 25 μM
  bacterial growth (optical density): 0.22
E. coli, (EC); T = 0 HOUR, with 1% SLES, 50 μM
  bacterial growth (optical density): 0.18
E. coli, (EC); T = 0 HOUR, with 1% SLES, 100 μM
  bacterial growth (optical density): 0.15
E. coli, (EC); T = 0 HOUR, with 1% Tt, 25 μM
  bacterial growth (optical density): 0.22
E. coli, (EC); T = 0 HOUR, with 1% Tt, 50 μM
  bacterial growth (optical density): 0.15
E. coli, (EC); T = 0 HOUR, with 1% Tt, 100 μM
  bacterial growth (optical density): 0.14
E. coli, (EC); T = 20 HOUR, NO SURF, 25 μM
  bacterial growth (optical density): 0.20
E. coli, (EC); T = 20 HOUR, NO SURF, 50 μM
  bacterial growth (optical density): 0.16
E. coli, (EC); T = 20 HOUR, NO SURF, 100 μM
  bacterial growth (optical density): 0.16
E. coli, (EC); T = 20 HOUR, with 1% C12TAB, 25 μM
  bacterial growth (optical density): 0.27
E. coli, (EC); T = 20 HOUR, with 1% C12TAB, 50 μM
  bacterial growth (optical density): 0.26
E. coli, (EC); T = 20 HOUR, with 1% C12TAB, 100 μM
  bacterial growth (optical density): 0.26
E. coli, (EC); T = 20 HOUR, with 1% F127, 25 μM
  bacterial growth (optical density): 0.15
E. coli, (EC); T = 20 HOUR, with 1% F127, 50 μM
  bacterial growth (optical density): 0.13
E. coli, (EC); T = 20 HOUR, with 1% F127, 100 μM
  bacterial growth (optical density): 0.14
E. coli, (EC); T = 20 HOUR, with 1% Mx, 25 μM
  bacterial growth (optical density): 0.32
E. coli, (EC); T = 20 HOUR, with 1% Mx, 50 μM
  bacterial growth (optical density): 0.28
E. coli, (EC); T = 20 HOUR, with 1% Mx, 100 μM
  bacterial growth (optical density): 0.25
E. coli, (EC); T = 20 HOUR, with 1% SLES, 25 μM
  bacterial growth (optical density): 0.08
E. coli, (EC); T = 20 HOUR, with 1% SLES, 50 μM
  bacterial growth (optical density): 0.08
E. coli, (EC); T = 20 HOUR, with 1% SLES, 100 μM
  bacterial growth (optical density): 0.06
E. coli, (EC); T = 20 HOUR, with 1% Tt, 25 μM
  bacterial growth (optical density): 0.09
E. coli, (EC); T = 20 HOUR, with 1% Tt, 50 μM
  bacterial growth (optical density): 0.07
E. coli, (EC); T = 20 HOUR, with 1% Tt, 100 μM
  bacterial growth (optical density): 0.07

## CCCCCCCCCCCCOCCOCCOCCOCCOCCOCCO [Helix C12E6, Hexaethylene glycol monododecyl ether]
[1]; human, 1 day, 1 %
  MTT results (relative MTT reading): 0.01
[1]; human, 2 day, 1 %
  MTT results (relative MTT reading): 0.01
[1]; human, 3 day, 1 %
  MTT results (relative MTT reading): 0.01

## CCCCCCCCCCCC[N+](C)(C)C.[Br-] [Helix C12TAB, Dodecyl trimethylammonium bromide]
[1]; HDFa, surfactant 1%, Day 1
  MTT results (relative MTT reading): 0.00
[1]; HDFa, surfactant 1%, Day 2
  MTT results (relative MTT reading): 0.00
[1]; HDFa, surfactant 1%, Day 3
  MTT results (relative MTT reading): 0.00
[2]; 72 hours
  growth of bacteria after 72 hours: no growth of bacteria
[2]
  antibacterial activity of surfactant alone: significant antibacterial activity

## GKIKKIIKKIIKII-NH2 [GKI, GKI(KKII)2 KII-NH2]
[3]
  IC50: 4 to 25 µM
[4]
  viability at 24 h, 5 µM: 95%
  viability at 24 h, 25 µM: 93%
  viability at 24 h, 50 µM: 90%
  viability at 24 h, 100 µM: 85%
  viability at 48 h, 5 µM: 82%
  viability at 48 h, 25 µM: 81%
  viability at 48 h, 50 µM: 80%
  viability at 48 h, 100 µM: 75%
  viability at 72 h, 5 µM: 81%
  viability at 72 h, 25 µM: 75%
  viability at 72 h, 50 µM: 71%
  viability at 72 h, 100 µM: 70%
In vitro
  viability at 24 h, 5 µM: 95%
  viability at 24 h, 25 µM: 87%
  viability at 24 h, 50 µM: 81%
  viability at 24 h, 100 µM: 69%
  viability at 48 h, 5 µM: 90%
  viability at 48 h, 25 µM: 83%
  viability at 48 h, 50 µM: 75%
  viability at 48 h, 100 µM: 60%
  viability at 72 h, 5 µM: 88%
  viability at 72 h, 25 µM: 78%
  viability at 72 h, 50 µM: 71%
  viability at 72 h, 100 µM: 55%

## CCCCCCCCCCCCOCCOCCOCCOCCOCCO [Helix C12E5, Pentaethylene glycol monododecyl ether]
[1]; human, 1 day, 0.5 %
  MTT results (relative MTT reading): 0.01
[1]; human, 2 day, 0.5 %
  MTT results (relative MTT reading): 0.01
[1]; human, 3 day, 0.5 %
  MTT results (relative MTT reading): 0.01
